We go through 30 molecules from ChEMBL document CHEMBL1142780, “Phenylpyrroles, a new chemolibrary virtual screening class of 5-HT7 receptor ligands” (Bioorg Med Chem Lett, 2005).

The target in assay [1] is T1, 5-hydroxytryptamine receptor 7 (Homo sapiens, UniProt P34969). Kind of assay: Inhibition of the binding of [3H]LSD on human 5-HT7R expressed in sf9 cells at concentration of 10e-8 M.
Assay [2] has as its target T1, 5-hydroxytryptamine receptor 7. Kind of assay: Inhibition of the binding of [3H]LSD on human 5-HT7R expressed in sf9 cells at concentration of 10e-6 M.
In assay [3] the target is 5-hydroxytryptamine receptor 6 (Homo sapiens) (UniProt P50406). The experiment in a line: Inhibition of the binding of [3H]LSD (radioligand) on human 5-HT6 receptor at concentration of 10e-8 M.
Assay [4] concerns the target T2, 5-hydroxytryptamine receptor 1A (Rattus norvegicus, UniProt P19327).
T2 sequence (P19327 whole entry): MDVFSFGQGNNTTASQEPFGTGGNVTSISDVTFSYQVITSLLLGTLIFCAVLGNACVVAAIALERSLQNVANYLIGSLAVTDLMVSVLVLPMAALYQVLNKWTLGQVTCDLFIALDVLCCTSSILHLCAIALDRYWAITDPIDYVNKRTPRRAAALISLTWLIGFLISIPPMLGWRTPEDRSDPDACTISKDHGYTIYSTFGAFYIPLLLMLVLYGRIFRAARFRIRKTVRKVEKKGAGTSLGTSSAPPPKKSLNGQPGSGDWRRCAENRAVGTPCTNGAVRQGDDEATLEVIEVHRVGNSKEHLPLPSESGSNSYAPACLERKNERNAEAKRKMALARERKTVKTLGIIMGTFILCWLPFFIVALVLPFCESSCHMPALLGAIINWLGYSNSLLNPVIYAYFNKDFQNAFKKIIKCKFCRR
Kind of assay: Binding affinity against rat 5-HT1A receptor.

Assay [5] addresses T1, 5-hydroxytryptamine receptor 7. Kind of assay: Binding affinity against Human 5-HT7R expressed in sf9 cells.
In assay [6] the target is 5-hydroxytryptamine receptor 6 (Homo sapiens) (UniProt P50406). Kind of assay: Inhibition of the binding of [3H]LSD (radioligand) on human 5-HT6 receptor at concentration of 10e-6 M.
The target of assay [7] is T1, 5-hydroxytryptamine receptor 7.
Description: PKb value against Human 5-HT7 receptor
Assay [8] concerns the target 5-hydroxytryptamine receptor 7 (Rattus norvegicus) (UniProt P32305). Kind of assay: Inhibition of the binding of [3H]LSD on rat 5-HT7R in HEK293 cells at concentration of 10e-6 M. The assay is classed as cell-based.
The target in assay [9] is 5-hydroxytryptamine receptor 7 (Rattus norvegicus, UniProt P32305). Kind of assay: Binding affinity against rat 5-HT7R expressed in HEK293 cells. The format is cell-based.
Assay [10] has as its target 5-hydroxytryptamine receptor 7 (Rattus norvegicus) (UniProt P32305). Kind of assay: Inhibition of the binding of [3H]LSD on rat 5-HT7R in HEK293 cells at concentration of 10e-8 M. The format is cell-based.
The target is the same in assay [11]. Kind of assay: Inhibition of the binding of [3H]LSD on rat 5-HT7R expressed in HEK293 cells at concentration of 10e-8 M. The assay is classed as cell-based.
Assay [12] shares this target. Kind of assay: Inhibition of the binding of [3H]LSD on rat 5-HT7R expressed in HEK293 cells at concentration of 10e-6 M. The format is cell-based.

Chain of 5-hydroxytryptamine receptor 7 (Rattus norvegicus) (P32305 whole entry): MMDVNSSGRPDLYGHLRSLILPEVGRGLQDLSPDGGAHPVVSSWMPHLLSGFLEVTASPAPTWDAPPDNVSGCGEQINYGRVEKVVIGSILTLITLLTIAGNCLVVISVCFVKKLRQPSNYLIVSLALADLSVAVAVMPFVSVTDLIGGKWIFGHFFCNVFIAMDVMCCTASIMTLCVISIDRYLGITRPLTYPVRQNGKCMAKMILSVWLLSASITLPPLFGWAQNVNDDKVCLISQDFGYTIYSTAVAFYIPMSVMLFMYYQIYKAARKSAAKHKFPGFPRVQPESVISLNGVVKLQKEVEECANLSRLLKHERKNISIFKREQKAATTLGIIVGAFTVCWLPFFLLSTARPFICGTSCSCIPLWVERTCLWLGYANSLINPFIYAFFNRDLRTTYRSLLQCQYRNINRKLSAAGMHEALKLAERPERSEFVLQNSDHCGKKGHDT
Chain of 5-hydroxytryptamine receptor 7 (Rattus norvegicus, UniProt P32305) (P32305 whole entry): as above
Chain of 5-hydroxytryptamine receptor 6 (Homo sapiens) (P50406 whole entry): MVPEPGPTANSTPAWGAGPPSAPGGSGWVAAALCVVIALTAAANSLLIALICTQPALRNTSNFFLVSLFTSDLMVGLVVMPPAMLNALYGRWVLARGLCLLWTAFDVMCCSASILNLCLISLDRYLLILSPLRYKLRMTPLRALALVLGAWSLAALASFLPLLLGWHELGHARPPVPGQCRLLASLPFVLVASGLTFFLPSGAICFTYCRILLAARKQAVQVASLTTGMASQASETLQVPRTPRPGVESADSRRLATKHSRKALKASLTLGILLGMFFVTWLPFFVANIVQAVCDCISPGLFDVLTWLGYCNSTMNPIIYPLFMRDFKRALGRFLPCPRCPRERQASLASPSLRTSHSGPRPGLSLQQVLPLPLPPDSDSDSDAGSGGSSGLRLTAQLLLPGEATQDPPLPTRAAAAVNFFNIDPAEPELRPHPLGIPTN
T1 sequence (P34969 whole entry): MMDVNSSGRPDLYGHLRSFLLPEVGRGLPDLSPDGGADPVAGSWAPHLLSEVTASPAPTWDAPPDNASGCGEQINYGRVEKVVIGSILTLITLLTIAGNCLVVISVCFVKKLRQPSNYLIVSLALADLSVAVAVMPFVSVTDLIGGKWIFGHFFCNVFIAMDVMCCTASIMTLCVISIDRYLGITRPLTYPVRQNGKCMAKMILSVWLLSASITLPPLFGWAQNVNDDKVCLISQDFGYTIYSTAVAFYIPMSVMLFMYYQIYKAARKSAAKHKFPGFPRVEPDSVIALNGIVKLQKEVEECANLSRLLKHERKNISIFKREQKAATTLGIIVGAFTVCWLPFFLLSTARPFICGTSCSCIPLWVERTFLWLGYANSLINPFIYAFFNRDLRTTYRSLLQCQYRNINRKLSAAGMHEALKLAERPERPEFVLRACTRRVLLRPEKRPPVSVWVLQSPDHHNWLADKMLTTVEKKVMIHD

With `Cc1cccc(-n2cccc2CCN)c1C`, the inhibition (usually the change of the read-out against control, counted positive when it falls) in assay [1] was 0%; in assay [2], 72%.

Regarding `COc1ccccc1N1CCN(Cc2cccn2-c2ccc(Cl)cc2Cl)CC1`, the figures for the inhibition in assay [1] and in assay [2] were 0% and 66%, respectively.

On to `COC(=O)c1cccc(C)c1-n1ccc(CN2CCN(c3ccccc3OC)CC2)c1`, for which the inhibition in assay [3] amounted to 9%; in assay [6] it was 20%. The Ki – broadly, a dissociation constant, usually derived from enzyme kinetics or from competition with a known ligand – in [4] was 18.5 nM; in assay [5], 18 nM. The PKb in [7] was found to be 7.66.

As for `COc1ccccc1N1CCN(Cc2ccn(-c3ccccc3C)c2)CC1`, the inhibition in [3] was 7%; in assay [8] it was 95%; in assay [10], 22%; in assay [6] it was 9%. Further, the Ki in [4] was found to be 9.9 nM; in assay [9], 21 nM; in [5] it was 4.7 nM.

In the case of `Cc1cccc(-n2cccc2CN2CCN(C)CC2)c1C`, the figures for the inhibition in assay [11] and in assay [12] were 0% and 33%, respectively.

Take `CCOc1ccc(OCC)c(-n2cccc2CCN)c1`: the values for the inhibition in assay [1] and in assay [2] were 0% and 14%, respectively.

Regarding `COc1ccccc1N1CCN(Cc2cccn2-c2ccccc2C(F)(F)F)CC1`, the inhibition in assay [11] stood at 7%; in assay [12], 38%.

As to `COc1ccccc1N1CCN(Cc2ccn(-c3cccc4ccccc34)c2)CC1`, the inhibition in assay [8] is 86%; in [10] it was 6%.

For `COc1ccc(OC)c(-n2cccc2CCN)c1`, the figures for the inhibition in assay [1] and in assay [2] were 6% and 31%, respectively.

Turning to `COc1ccccc1N1CCN(Cc2ccn(-c3cccc(C)c3C)c2)CC1`, the inhibition came to 91% in [8] and 0% in assay [10].

Turning to `COc1ccccc1N1CCN(Cc2cccn2-c2ccccc2C)CC1`, the figures for the inhibition in assay [11] and in assay [12] were 0% and 63%, respectively.

Turning to `COc1ccccc1-n1cccc1CN1CCN(C)CC1`, the inhibition in assay [11] was determined as 0%; in [12], 12%.

With `COc1ccccc1N1CCN(Cc2cccn2-c2ccccc2-c2ccccc2)CC1`, the results for the inhibition in [11] and in assay [12] were 0% and 26%, respectively.

With `COc1ccccc1N1CCN(Cc2cccn2-c2ccccc2)CC1`, the inhibition in assay [1] amounted to 0%; in assay [2], 91%.

`Cc1ccccc1-n1cccc1CN1CCN(c2noc3ccccc23)CC1`: the results for the inhibition in [11] and in assay [12] were 0% and 47%, respectively.

As for `COc1ccccc1N1CCN(Cc2ccn(-c3ccccc3OC)c2)CC1`, the inhibition in assay [8] worked out at 6%; in assay [10], 0%.

As for `COc1ccccc1N1CCN(Cc2cccn2-c2cccc(C)c2C)CC1`, the inhibition turned out to be 2% in assay [11] and 68% in assay [12].

As to `N#Cc1ccccc1-n1ccc(CN2CCN(c3noc4ccccc34)CC2)c1`, the results for the inhibition in assay [8] and in assay [10] were 34% and 7%, respectively.

Turning to `COc1ccccc1N1CCN(Cc2ccn(-c3ccccc3C(F)(F)F)c2)CC1`, the figures for the inhibition in [8] and in [10] were 91% and 21%, respectively. The molecule further gave a Ki in [9] of 105 nM.

Regarding `Cc1ccccc1-n1ccc(CN2CCN(c3noc4ccccc34)CC2)c1`, the inhibition in assay [8] worked out at 42%; in assay [10], 9%.

Consider `COc1ccccc1N1CCN(Cc2ccn(-c3c(C)cc(C)cc3C)c2)CC1`, for which the results for the inhibition in [8] and in assay [10] were 32% and 0%, respectively.

As to `NCCc1cccn1-c1ccccc1`, the inhibition was determined as 0% in assay [1] and 31% in assay [2].

On to `COc1ccc(-n2cccc2CCN)cc1`, for which the inhibition in assay [1] stood at 3%; in assay [2] it was 36%.

Turning to `COc1ccccc1N1CCN(Cc2ccn(-c3ccccc3C#N)c2)CC1`, the inhibition worked out at 10% in assay [3], 96% in assay [8], 14% in [10] and 12% in [6]. Further, the Ki in assay [4] is 33.7 nM; in assay [9], 19 nM; in assay [5], 5.4 nM. The same molecule registered a PKb in [7] of 7.43.

On to `COc1ccccc1N1CCN(Cc2cccn2-c2cccc3ccccc23)CC1`, for which the inhibition in assay [11] was 17%; in assay [12] it was 60%.

As to `COc1ccccc1N1CCN(Cc2cccn2-c2ccccc2C#N)CC1`, the results for the inhibition in assay [11] and in [12] were 0% and 24%, respectively.

On to `c1ccc(N2CCN(Cc3cccn3-c3ccccc3)CC2)cc1`, for which the inhibition in assay [1] is 14%; in assay [2], 71%.

Take `NCCc1cccn1-c1ccccc1Cl`: the results for the inhibition in assay [1] and in assay [2] were 0% and 58%, respectively.

For `N#Cc1ccccc1-n1cccc1CN1CCN(c2noc3ccccc23)CC1`, the inhibition in [11] worked out at 1%; in assay [12] it was 43%.

On to `COc1ccccc1N1CCN(Cc2cccn2-c2ccccc2OC)CC1`, for which the figures for the inhibition in assay [11] and in [12] were 16% and 80%, respectively.
